Experimental data taken from ChEMBL document CHEMBL1201862, “PubChem BioAssay data set” (2004).
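Following 48 hours of exposure in 96-well plates, responses at five concentrations were used to interpolate endpoints linearly. GI50 = concentration required for 50% inhibition of growth.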 Activity calls are given as the source filed them. Cut-off read from the data, not from the text of the source: active = GI50 up to about 1.1 µM and inactive = higher.

Key:
Experiment in all cases: inhibition of tumour cell growth, NCI panel, 48 h
[1] = test system: OVCAR-4
[2] = test system: Hs-578T
[3] = test system: SK-MEL-2
[4] = test system: MCF7
[5] = test system: ACHN
[6] = test system: NCI-H522
[7] = test system: COLO 205
[8] = test system: HCC 2998
[9] = test system: KM12
[10] = test system: CCRF-CEM
[11] = test system: A549
[12] = test system: HCT-15
[13] = test system: OVCAR-8
[14] = test system: Malme-3M
[15] = test system: U-251
[16] = test system: PC-3
[17] = test system: SK-MEL-28
[18] = test system: CAKI-1
[19] = test system: EKVX
[20] = test system: SK-MEL-5

COC(=O)c1cn(CC(O)CCl)nn1 (stereo not given)
GI50 [1]: > 100 µM (inactive)
GI50 [2]: > 100 µM (inactive)
GI50 [3]: > 100 µM (inactive)
GI50 [4]: > 100 µM (inactive)
GI50 [5]: > 100 µM (inactive)
GI50 [6]: > 100 µM (inactive)
GI50 [7]: > 100 µM (inactive)
GI50 [8]: > 100 µM (inactive)
GI50 [9]: > 100 µM (inactive)
GI50 [10]: > 100 µM (inactive)
GI50 [11]: > 100 µM (inactive)
GI50 [12]: > 100 µM
GI50 [13]: > 100 µM (inactive)
GI50 [14]: > 100 µM (inactive)
GI50 [15]: > 100 µM (inactive)
GI50 [16]: > 100 µM (inactive)
GI50 [17]: > 100 µM (inactive)
GI50 [18]: > 100 µM (inactive)
GI50 [19]: > 100 µM (inactive)
GI50 [20]: > 100 µM (inactive)

Cc1cc(C)n(C(=C(C(Cl)=C(Cl)Cl)[N+](=O)[O-])n2nc(C)cc2C)n1
GI50 [1]: 3.59 µM (inactive)
GI50 [2]: 4.66 µM (inactive)
GI50 [3]: 1.37 µM (inactive)
GI50 [4]: 2.55 µM (inactive)
GI50 [5]: 3.21 µM (inactive)
GI50 [6]: 2.73 µM (inactive)
GI50 [7]: 2.08 µM (inactive)
GI50 [8]: 3.19 µM (inactive)
GI50 [9]: 3.48 µM (inactive)
GI50 [10]: 2.16 µM (inactive)
GI50 [11]: 3.5 µM (inactive)
GI50 [12]: 3.2 µM
GI50 [13]: 3.06 µM (inactive)
GI50 [14]: 2.98 µM (inactive)
GI50 [15]: 3.44 µM (inactive)
GI50 [16]: 4.43 µM (inactive)
GI50 [17]: 6.17 µM (inactive)
GI50 [18]: 3.23 µM (inactive)
GI50 [19]: 2.58 µM (inactive)
GI50 [20]: 2.13 µM (inactive)

COc1ccc(N2C(=O)C3c4[nH]c5ccc(C)cc5c4C4CCC(c5ccccc5)CC4C3C2=O)cc1 (stereo not given)
GI50 [1]: > 32.5 µM (inactive)
GI50 [2]: 6.84 µM (inactive)
GI50 [3]: 28.5 µM (inactive)
GI50 [4]: > 83.6 µM (inactive)
GI50 [5]: 32.6 µM (inactive)
GI50 [6]: > 100 µM (inactive)
GI50 [7]: > 100 µM (inactive)
GI50 [8]: > 100 µM (inactive)
GI50 [9]: > 100 µM (inactive)
GI50 [10]: 4.9 µM (inactive)
GI50 [11]: > 89.1 µM (inactive)
GI50 [12]: > 75.9 µM
GI50 [13]: 22.5 µM (inactive)
GI50 [14]: > 100 µM (inactive)
GI50 [15]: 12.9 µM (inactive)
GI50 [16]: > 100 µM (inactive)
GI50 [17]: > 100 µM (inactive)
GI50 [18]: > 33.1 µM (inactive)
GI50 [19]: > 64.3 µM (inactive)
GI50 [20]: > 100 µM (inactive)

CCCNC(=S)N/C=C1/C(=O)Oc2ccccc2C1=O
GI50 [1]: > 100 µM (inactive)
GI50 [2]: 50.4 µM (inactive)
GI50 [3]: 75.3 µM (inactive)
GI50 [4]: > 100 µM (inactive)
GI50 [5]: 94.8 µM (inactive)
GI50 [6]: > 100 µM (inactive)
GI50 [7]: > 100 µM (inactive)
GI50 [8]: > 100 µM (inactive)
GI50 [9]: > 100 µM (inactive)
GI50 [10]: > 100 µM (inactive)
GI50 [11]: > 100 µM (inactive)
GI50 [12]: > 100 µM
GI50 [13]: > 100 µM (inactive)
GI50 [14]: 63.7 µM (inactive)
GI50 [15]: > 100 µM (inactive)
GI50 [16]: > 100 µM (inactive)
GI50 [17]: > 100 µM (inactive)
GI50 [18]: > 100 µM (inactive)
GI50 [19]: > 100 µM (inactive)
GI50 [20]: > 100 µM (inactive)

CN(/N=C1\C(=O)Nc2ccccc21)c1ccccc1
GI50 [1]: 95.3 µM (inactive)
GI50 [2]: 29.6 µM (inactive)
GI50 [3]: > 100 µM (inactive)
GI50 [4]: 15.3 µM (inactive)
GI50 [5]: 77.6 µM (inactive)
GI50 [6]: 87.3 µM (inactive)
GI50 [7]: > 10 µM (inactive)
GI50 [8]: > 100 µM (inactive)
GI50 [9]: 29.6 µM (inactive)
GI50 [10]: 58.7 µM (inactive)
GI50 [11]: 72.9 µM (inactive)
GI50 [12]: 44.2 µM
GI50 [13]: 26.4 µM (inactive)
GI50 [14]: 31.9 µM (inactive)
GI50 [15]: 74.8 µM (inactive)
GI50 [16]: 45.4 µM (inactive)
GI50 [17]: > 100 µM (inactive)
GI50 [18]: 22.1 µM (inactive)
GI50 [19]: 29.8 µM (inactive)
GI50 [20]: 32.6 µM (inactive)

c1ccc(C(NC2=NCCO2)c2ccccc2)cc1
GI50 [1]: > 10 µM (inactive)
GI50 [2]: > 10 µM (inactive)
GI50 [3]: > 10 µM (inactive)
GI50 [4]: 6 µM (inactive)
GI50 [5]: > 10 µM (inactive)
GI50 [6]: > 10 µM (inactive)
GI50 [7]: > 10 µM (inactive)
GI50 [8]: > 10 µM (inactive)
GI50 [9]: > 10 µM (inactive)
GI50 [10]: > 10 µM (inactive)
GI50 [11]: > 10 µM (inactive)
GI50 [12]: > 10 µM
GI50 [13]: > 10 µM (inactive)
GI50 [14]: > 10 µM (inactive)
GI50 [15]: > 10 µM (inactive)
GI50 [16]: > 10 µM (inactive)
GI50 [17]: > 10 µM (inactive)
GI50 [18]: > 10 µM (inactive)
GI50 [19]: > 10 µM (inactive)
GI50 [20]: > 10 µM (inactive)

c1ccc(CSC2(SCc3ccccc3)CCCC2)cc1
GI50 [1]: > 10 µM (inactive)
GI50 [2]: 6.97 µM (inactive)
GI50 [3]: > 10 µM (inactive)
GI50 [4]: > 10 µM (inactive)
GI50 [5]: > 10 µM (inactive)
GI50 [6]: > 10 µM (inactive)
GI50 [7]: > 10 µM (inactive)
GI50 [8]: > 10 µM (inactive)
GI50 [9]: > 10 µM (inactive)
GI50 [10]: > 10 µM (inactive)
GI50 [11]: > 10 µM (inactive)
GI50 [12]: > 10 µM
GI50 [13]: > 10 µM (inactive)
GI50 [14]: > 10 µM (inactive)
GI50 [15]: > 10 µM (inactive)
GI50 [16]: > 10 µM (inactive)
GI50 [17]: > 10 µM (inactive)
GI50 [18]: > 10 µM (inactive)
GI50 [19]: > 10 µM (inactive)
GI50 [20]: > 10 µM (inactive)

COc1ccc(/C(C#N)=C/c2ccc(OC)c(OC)c2)cc1
GI50 [1]: 69.8 µM (inactive)
GI50 [2]: > 100 µM (inactive)
GI50 [3]: > 100 µM (inactive)
GI50 [4]: > 100 µM (inactive)
GI50 [5]: > 100 µM (inactive)
GI50 [6]: > 100 µM (inactive)
GI50 [7]: > 100 µM (inactive)
GI50 [8]: 59 µM (inactive)
GI50 [9]: > 100 µM (inactive)
GI50 [10]: > 100 µM (inactive)
GI50 [11]: > 100 µM (inactive)
GI50 [12]: 37.2 µM
GI50 [13]: > 100 µM (inactive)
GI50 [14]: > 100 µM (inactive)
GI50 [15]: > 100 µM (inactive)
GI50 [16]: > 100 µM (inactive)
GI50 [17]: > 100 µM (inactive)
GI50 [18]: > 100 µM (inactive)
GI50 [19]: > 100 µM (inactive)
GI50 [20]: > 100 µM (inactive)

Cc1nc2ccccc2n1C(=O)c1c(F)c(F)c(F)c(F)c1F
GI50 [1]: 14.5 µM (inactive)
GI50 [2]: 26.5 µM (inactive)
GI50 [3]: 7.41 µM (inactive)
GI50 [4]: 5.12 µM (inactive)
GI50 [5]: 22.9 µM (inactive)
GI50 [6]: 3.01 µM (inactive)
GI50 [7]: 14.8 µM (inactive)
GI50 [8]: 17.6 µM (inactive)
GI50 [9]: 3.13 µM (inactive)
GI50 [10]: 5.12 µM (inactive)
GI50 [11]: 30.4 µM (inactive)
GI50 [12]: 11.2 µM
GI50 [13]: 17.7 µM (inactive)
GI50 [14]: 19.8 µM (inactive)
GI50 [15]: 19 µM (inactive)
GI50 [16]: 17.5 µM (inactive)
GI50 [17]: 29.4 µM (inactive)
GI50 [18]: 16.7 µM (inactive)
GI50 [19]: 28.3 µM (inactive)
GI50 [20]: 12.1 µM (inactive)
